Test results from ChEMBL document CHEMBL1146095, “Modeling the preferred shapes of polyamine transporter ligands and dihydromotuporamine-C mimics: shovel versus hoe” (J Med Chem, 2006).

Legend:
[1] = Selectivity for CHO cells over CHO-MG cells; assay type: functional
CHO = assay: Cytotoxicity against CHO cell line; assay type: functional, cell-based; conditions: Cricetulus griseus
[2] = system: Mammalian polyamine transporter; assay: Inhibition of [14C]spermidine uptake into polyamine transporter expressed in L1210 cells; assay type: functional, cell-based, Mus musculus
CHO-MG = assay: Cytotoxicity against CHO-MG cell line; assay type: functional, cell-based; conditions: Cricetulus griseus

**Q.** With CCN(CCCNCCCN)Cc1c2ccccc2cc2ccccc12.Cl.Cl.Cl as the molecule, how does the “Ratio IC50” value [1] read?
**A.** The value was 0.8.

**Q.** And the IC50 (CHO)?
**A.** The IC50 was 5.3 µM.

**Q.** And the Ki [2]?
**A.** The Ki was 23.5 µM.

**Q.** And the IC50 (CHO-MG)?
**A.** Its IC50 is 4 µM.
